The record followed here is patent US20250074897A1, “PYRIDAZINONES AS PARP7 INHIBITORS” (Ribon Therapeutics, Inc., priority 2019, published 2025).

pIC50: −log10 of the molar value. Bounds are passed on as bounds.

This test deals with T1, PARP7 (TIPARP) (Homo sapiens, UniProt Q7Z3E1).
T1 sequence (Q7Z3E1 1-657): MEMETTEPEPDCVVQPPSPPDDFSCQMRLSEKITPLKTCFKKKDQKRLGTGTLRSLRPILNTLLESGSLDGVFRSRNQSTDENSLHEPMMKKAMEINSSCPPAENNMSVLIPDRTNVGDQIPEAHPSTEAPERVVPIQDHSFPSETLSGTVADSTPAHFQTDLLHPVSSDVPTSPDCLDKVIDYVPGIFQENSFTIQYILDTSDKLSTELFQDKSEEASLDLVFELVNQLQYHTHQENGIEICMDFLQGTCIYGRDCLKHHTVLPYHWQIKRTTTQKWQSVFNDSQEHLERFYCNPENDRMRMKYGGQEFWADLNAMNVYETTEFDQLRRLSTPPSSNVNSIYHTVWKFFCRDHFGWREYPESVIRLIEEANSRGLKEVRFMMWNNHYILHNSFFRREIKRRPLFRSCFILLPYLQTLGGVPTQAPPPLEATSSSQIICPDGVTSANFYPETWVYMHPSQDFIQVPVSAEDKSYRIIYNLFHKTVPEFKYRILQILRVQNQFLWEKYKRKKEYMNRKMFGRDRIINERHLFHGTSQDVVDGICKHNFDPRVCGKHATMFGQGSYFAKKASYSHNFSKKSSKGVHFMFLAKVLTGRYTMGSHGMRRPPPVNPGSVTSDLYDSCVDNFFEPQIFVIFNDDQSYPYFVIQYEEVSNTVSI
Nature of the test: Enzymatic assay for inhibition of PARP7: TR-FRET displacement of biotinylated Probe A from the TIPARP active site. The note with it: 6 nM TIPARP, 2 nM Probe A, 25° C., 30 min incubation with test compound. It counts as binding. The protocol:
Enzymatic Assay for Inhibition of PARP7
Displacement of Probe A, a biotinylated probe binding to the TIPARP active site, was measured using a time-resolved fluorescence energy transfer (TR-FRET) assay. 20 nL of a dose response curve of each test compound was spotted in black 384-well polystyrene proxiplates (Perkin Elmer) using a Mosquito (TTP Labtech). Reactions were performed in a 8 μL volume by adding 6 μL of TIPARP and Probe A in assay buffer (20 mM HEPES pH=8, 100 mM NaCl, 0.1% bovine serum albumin, 2 mM DTT and 0.002% Tween20), incubating with test compound at 25° C. for 30 min, then adding 2 μL of ULight-anti 6xHis and LANCE Eu-W1024 labeled streptavidin (Perkin Elmer). The final concentrations of TIPARP and Probe A were 6 nM and 2 nM, respectively. The final concentration of ULight-anti 6xHis and LANCE Eu-W1024 labeled streptavidin were 4 nM and 0.25 nM, respectively. Reactions were incubated at 25° C. for an additional 30 min, then read on an Envision platereader equipped with a LANCE/DELFIA top mirror (Perkin Elmer) using excitation of 320 nm and emission of 615 nm and […] with a 90 μs delay. The ratio of the 665/615 nm emission were calculated for each well to determine the amount of complex of TIPARP and Probe A in each well. Control wells containing a negative control of 0.25% DMSO vehicle or a positive control of 100 μM 5-(5-(piperidin-4-yloxy)isoindolin-2-yl)-4-(trifluoromethyl)pyridazin-3(2H)-one were used to calculate the % inhibition as described below:
where TRFempd is the TR-FRET ratio from the compound treated well, TRFmin is the TR-FRET ratio from the 5-(5-(piperidin-4-yloxy)isoindolin-2-yl)-4-(trifluoromethyl)pyridazin-3(2H)-one-treated positive control well and TRFmax is the TR-FRET ratio from the DMSO-treated negative control well.
The % inhibition values were plotted as a function of compound concentration and the following 4-parameter fit was applied to derive the IC50 values:
where top and bottom are normally allowed to float, but may be fixed at 100 or 0 respectively in a 3-parameter fit. The Hill Coefficient is normally allowed to float but may also be fixed at 1 in a 3-parameter fit. Y is the % inhibition and X is the compound concentration.
On the technique in general: In TR-FRET formats the signal depends on donor and acceptor labels being close together.
Turning to `C[C@@H](COC[C@H](O)C(=O)N1CCN(c2cnc(C(F)(F)F)cn2)CC1)Oc1cn[nH]c(=O)c1C(F)(F)F` [Example 8B, 5-(((S)-1-((S)-2-hydroxy-3-oxo-3-(4-(5-(trifluoromethyl)pyrazin-2-yl)piperazin-1-yl)propoxy)propan-2-yl)oxy)-4-(trifluoromethyl)pyridazin-3(2H)-one], the pIC50 (usually −log10 of the IC50, conventionally taken in molar units) is greater than 7.00.

Molecule `C[C@@H](COC[C@@H](O)C(=O)N1CCN(c2ncc(C(F)F)cn2)CC1)Oc1cn[nH]c(=O)c1C(F)(F)F` [Example 11A, 5-(((S)-1-((R)-3-(4-(5-(difluoromethyl)pyrimidin-2-yl)piperazin-1-yl)-2-hydroxy-3-oxopropoxy)propan-2-yl)oxy)-4-(trifluoromethyl)pyridazin-3(2H)-one] had a pIC50 greater than 7.00.

Turning to `O=C([C@H](O)COC[C@H]1c2ccccc2CN1c1cn[nH]c(=O)c1C(F)(F)F)N1CCN(c2ncc(C(F)(F)F)cn2)CC1` (single isomer, unassigned) [Example 17B], the pIC50 is greater than 7.00.

In turn, `CC[C@@H](COCC(O)C(=O)N1CCN(c2ncc(C(F)(F)F)cn2)CC1)Nc1cn[nH]c(=O)c1C(F)(F)F` (stereo partly drawn) [Example 15, 5-(((2S)-1-(2-hydroxy-3-oxo-3-(4-(5-(trifluoromethyl)pyrimidin-2-yl)piperazin-1-yl)propoxy)butan-2-yl)amino)-4-(trifluoromethyl)pyridazin-3(2H)-one] showed a pIC50 greater than 7.00.

For `[2H]C1([2H])N(C(=O)[C@H](O)COC[C@H](C)Nc2cn[nH]c(=O)c2C(F)(F)F)C([2H])([2H])C([2H])([2H])N(c2ncc(C(F)(F)F)cn2)C1([2H])[2H]` (single isomer, unassigned) [Example 13A], the pIC50 is greater than 7.00.

Turning to `O=C([C@@H](O)COC[C@@H]1c2ccccc2CN1c1cn[nH]c(=O)c1C(F)(F)F)N1CCN(c2ncc(C(F)(F)F)cn2)CC1` (single isomer, unassigned) [Example 17C], the pIC50 is greater than 7.00.

For `COC[C@@H](COCC(O)C(=O)N1CCN(c2ncc(C(F)(F)F)cn2)CC1)Nc1cn[nH]c(=O)c1C(F)(F)F` (stereo partly drawn) [Example 14, 5-(((2S)-1-(2-hydroxy-3-oxo-3-(4-(5-(trifluoromethyl)pyrimidin-2-yl)piperazin-1-yl)propoxy)-3-methoxypropan-2-yl)amino)-4-(trifluoromethyl)pyridazin-3(2H)-one], the pIC50 is greater than 7.00.

Regarding `C[C@@H](COC[C@@H](O)C(=O)N1CCN(c2ncc(C(F)(F)F)s2)CC1)Nc1cn[nH]c(=O)c1C(F)(F)F` [Example 3A, 5-((S)-1-((R)-2-hydroxy-3-oxo-3-(4-(5-(trifluoromethyl)thiazol-2-yl)piperazin-1-yl)propoxy)propan-2-ylamino)-4-(trifluoromethyl)pyridazin-3(2H)-one], the pIC50 was greater than 7.00.

Turning to `C[C@@H](COCC(C)(O)C(=O)N1CCN(c2ncc(C(F)(F)F)cn2)CC1)Nc1cn[nH]c(=O)c1C(F)(F)F` (stereo partly drawn) [Example 5, 5-(((2S)-1-(2-hydroxy-2-methyl-3-oxo-3-(4-(5-(trifluoromethyl)pyrimidin-2-yl)piperazin-1-yl)propoxy)propan-2-yl)amino)-4-(trifluoromethyl)pyridazin-3(2H)-one], the negative-log IC50 (pIC50) was greater than 7.00.

Turning to `C[C@@H](COC[C@@H](O)C(=O)N1CCN(c2cnc(C(F)(F)F)cn2)CC1)Oc1cn[nH]c(=O)c1C(F)(F)F` [Example 8A, 5-(((S)-1-((R)-2-hydroxy-3-oxo-3-(4-(5-(trifluoromethyl)pyrazin-2-yl)piperazin-1-yl)propoxy)propan-2-yl)oxy)-4-(trifluoromethyl)pyridazin-3(2H)-one], the pIC50 was greater than 7.00.

`C[C@@H](COC[C@@H](O)C(=O)N1CCN(c2ncc(C(F)F)cn2)CC1)Nc1cn[nH]c(=O)c1C(F)(F)F` [Example 4A, 5-(((S)-1-((R)-3-(4-(5-(difluoromethyl)pyrimidin-2-yl)piperazin-1-yl)-2-hydroxy-3-oxopropoxy)propan-2-yl)amino)-4-(trifluoromethyl)pyridazin-3(2H)-one] gave a negative logarithm of the IC50 (pIC50) greater than 7.00.

As to `O=C(C(O)COC[C@@H]1CCN1c1cn[nH]c(=O)c1C(F)(F)F)N1CCN(c2ncc(C(F)(F)F)cn2)CC1` (stereo partly drawn) [Example 18, 5-((2S)-2-((2-hydroxy-3-oxo-3-(4-(5-(trifluoromethyl)pyrimidin-2-yl)piperazin-1-yl)propoxy)methyl)azetidin-1-yl)-4-(trifluoromethyl)pyridazin-3(2H)-one], the negative logarithm of the IC50 (pIC50) is greater than 7.00.

Molecule `C[C@@H](COC[C@H](O)C(=O)N1CCN(c2ncc(C(F)(F)F)cn2)CC1)Oc1cn[nH]c(=O)c1Br` (single isomer, unassigned) [Example 12B] had a pIC50 greater than 7.00.

With `C[C@@H](COC[C@H](O)C(=O)N1CCN(c2ncc(C(F)(F)F)s2)CC1)Nc1cn[nH]c(=O)c1C(F)(F)F` [Example 3B, 5-((S)-1-((S)-2-hydroxy-3-oxo-3-(4-(5-(trifluoromethyl)thiazol-2-yl)piperazin-1-yl)propoxy)propan-2-ylamino)-4-(trifluoromethyl)pyridazin-3(2H)-one], the pIC50 was greater than 7.00.

In turn, `[2H]C1([2H])N(C(=O)[C@@H](O)COC[C@H](C)Nc2cn[nH]c(=O)c2C(F)(F)F)C([2H])([2H])C([2H])([2H])N(c2ncc(C(F)(F)F)cn2)C1([2H])[2H]` (single isomer, unassigned) [Example 13B] showed a pIC50 greater than 7.00.

Consider `C[C@@H](COC[C@@H](O)C(=O)N1CCN(c2ncc(C(F)(F)F)cn2)CC1)Oc1cn[nH]c(=O)c1Br` (single isomer, unassigned) [Example 12A], for which the negative logarithm of the IC50 (pIC50) was greater than 7.00.

Regarding `O=C([C@@H](O)COC[C@H](COC(F)(F)F)Nc1cn[nH]c(=O)c1C(F)(F)F)N1CCN(c2ncc(C(F)(F)F)cn2)CC1` [Example 16B, 5-(((R)-1-((S)-2-hydroxy-3-oxo-3-(4-(5-(trifluoromethyl)pyrimidin-2-yl)piperazin-1-yl)propoxy)-3-(trifluoromethoxy)propan-2-yl)amino)-4-(trifluoromethyl)pyridazin-3(2H)-one], the negative-log IC50 (pIC50) was greater than 7.00.

In the case of `O=C([C@@H](O)COC[C@H]1c2ccccc2CN1c1cn[nH]c(=O)c1C(F)(F)F)N1CCN(c2ncc(C(F)(F)F)cn2)CC1` (single isomer, unassigned) [Example 17D], the pIC50 was greater than 7.00.

As to `C[C@@H](COC[C@H](O)C(=O)N1CCN(c2ncc(C(F)F)cn2)CC1)Nc1cn[nH]c(=O)c1C(F)(F)F` [Example 4B, 5-(((S)-1-((S)-3-(4-(5-(difluoromethyl)pyrimidin-2-yl)piperazin-1-yl)-2-hydroxy-3-oxopropoxy)propan-2-yl)amino)-4-(trifluoromethyl)pyridazin-3(2H)-one], the negative logarithm of the IC50 (pIC50) was greater than 7.00.

Regarding `O=C([C@H](O)COC[C@@H]1c2ccccc2CN1c1cn[nH]c(=O)c1C(F)(F)F)N1CCN(c2ncc(C(F)(F)F)cn2)CC1` (single isomer, unassigned) [Example 17A], the pIC50 was greater than 7.00.

With `C[C@@H](COC[C@H](O)C(=O)N1CCN(c2cnc(C(F)(F)F)cn2)CC1)Nc1cn[nH]c(=O)c1C(F)(F)F` [Example 2B, 5-(((S)-1-((S)-2-hydroxy-3-oxo-3-(4-(5-(trifluoromethyl)pyrazin-2-yl)piperazin-1-yl)propoxy)propan-2-yl)amino)-4-(trifluoromethyl)pyridazin-3(2H)-one], the pIC50 was greater than 7.00.

On to `C[C@@H](COC[C@@H](O)C(=O)N1CCN(c2ncc(C(F)(F)F)cn2)CC1)Oc1cn[nH]c(=O)c1C(F)(F)F` (single isomer, unassigned) [Example 7A], for which the pIC50 is greater than 7.00.
